Assay type in all cases: functional
Assay [1] concerns KB. Briefly: Cytotoxicity against human KB cells after 72 hrs by SRB assay. Conditions: read-out: ED50 (the source's name).
Assay [2] can be described thus: Cytotoxicity against human KBVIN cells after 72 hrs by SRB assay. Conditions: read-out: ED50 (the source's name). (Sulforhodamine B stains cellular protein and so reports cell mass.)
The test system of assay [3] is A549. The experiment in a line: Cytotoxicity against human A549 cells after 72 hrs by SRB assay. Particulars: A549, 72 h, read-out: ED50 (the source's name).
Assay [4] deals with DU-145. Briefly: Cytotoxicity against human DU145 cells after 72 hrs by SRB assay. Conditions: DU-145, 72 h, read-out: ED50 (the source's name).
Assay [5] concerns SK-BR-3. The experiment in a line: Cytotoxicity against human SK-BR-3 cells after 72 hrs by SRB assay. Particulars: SK-BR-3, 72 h, read-out: ED50 (the source's name).
Assay [6] has as its system ZR-75-1. The experiment in a line: Cytotoxicity against human ZR-75-1 cells after 72 hrs by SRB assay. Particulars: ZR-75-1, 72 h, read-out: ED50 (the source's name).
For assay [7], the system named is MDA-MB-231. The experiment in a line: Cytotoxicity against human MDA-MB-231 cells after 72 hrs by SRB assay. Conditions: MDA-MB-231, 72 h, read-out: ED50 (the source's name).

The text below walks through data of ChEMBL document CHEMBL1177814, “Antitumor agents 278. 4-Amino-2H-benzo[h]chromen-2-one (ABO) analogs as potent in vitro anti-cancer agents” (2010).

With `O=c1cc(NC2CC2)c2ccc3ccccc3c2o1`, the EC50 in assay [1] came out at 7800 nM; in assay [2], 9900 nM; in assay [3] it was 29800 nM; in assay [4], 9600 nM; in assay [5] it was 20800 nM; in assay [6], 19.5 µM. Besides, the EC50 in assay [7] came out at 10 µM.
Turning to `CON(C)C(=O)CNc1cc(=O)oc2c1ccc1ccccc12`, the EC50 worked out at 2200 nM in assay [1]; 3000 nM in assay [2]; 3100 nM in assay [3]; 3200 nM in assay [4]; 4500 nM in assay [5]; 0.48 µM in assay [6]. For the same compound, the EC50 in assay [7] is 5.8 µM.
On to `CCc1cccc2c1ccc1c(NCC(=O)N(C)OC)cc(=O)oc12`, for which the EC50 in assay [1] was determined as 21500 nM; in assay [2], 19700 nM; in assay [3], 17600 nM; in assay [4] it was 16200 nM; in assay [5] it was 17400 nM; in assay [6] it was 18.2 µM. Moreover, in assay [7], the EC50 is > 30 µM.
Regarding `O=c1cc(N2CCOCC2)c2ccc3ccccc3c2o1`, the EC50 in assay [1] is > 30000 nM; in assay [2], > 30000 nM; in assay [3] it was > 30000 nM; in assay [4] it was > 30000 nM; in assay [5] it was > 30000 nM; in assay [6], 3.9 µM. Besides, the EC50 in assay [7] was > 30 µM.
As for `CCCNc1cc(=O)oc2c1ccc1ccccc12`, the EC50 in assay [1] was > 30000 nM; in assay [2], 10600 nM; in assay [3] it was > 30000 nM; in assay [4], > 30000 nM; in assay [5], > 30000 nM; in assay [6], > 30 µM. Moreover, the EC50 in assay [7] stood at 19.8 µM.
`O=c1cc(Nc2cccc(Br)c2)c2ccc3ccccc3c2o1`: the EC50 in assay [1] was > 30000 nM; in assay [2], > 30000 nM; in assay [3], > 30000 nM; in assay [4] it was > 30000 nM; in assay [5], > 30000 nM; in assay [6], > 30 µM. Moreover, in assay [7], the EC50 was > 30 µM.
Turning to `Cc1ccccc1Nc1cc(=O)oc2c1ccc1ccccc12`, the EC50 in assay [1] worked out at 2100 nM; in assay [2] it was 840 nM; in assay [3], 1300 nM; in assay [4] it was 1300 nM; in assay [5], 1600 nM; in assay [6] it was 4.3 µM. Moreover, the EC50 in assay [7] was determined as 8.3 µM.
For `COc1cccc(Nc2cc(=O)oc3c2ccc2ccccc23)c1`, the EC50 is 220 nM in assay [1]; 170 nM in assay [2]; 290 nM in assay [3]; 270 nM in assay [4]; 300 nM in assay [5]; 0.5 µM in assay [6]. For the same compound, the EC50 in assay [7] was 1.3 µM.
As to `O=c1cc(N2CCCCC2)c2ccc3ccccc3c2o1`, the EC50 in assay [1] was > 30000 nM; in assay [2] it was 10900 nM; in assay [3], > 30000 nM; in assay [4], > 30000 nM; in assay [5], > 30000 nM; in assay [6] it was > 30 µM. The EC50 in assay [7] is 30 µM.
On to `COc1ccc(Nc2cc(=O)oc3c2ccc2ccccc23)cc1`, for which the EC50 came out at 110 nM in assay [1]; 130 nM in assay [2]; 170 nM in assay [3]; 110 nM in assay [4]; 130 nM in assay [5]; 0.01 µM in assay [6]. The EC50 in assay [7] was found to be 0.02 µM.
In the case of `COC(=O)CNc1cc(=O)oc2c1ccc1ccccc12`, the EC50 worked out at 4600 nM in assay [1]; 3100 nM in assay [2]; 4700 nM in assay [3]; 4100 nM in assay [4]; 3800 nM in assay [5]; 6.7 µM in assay [6]. For the same compound, the EC50 in assay [7] worked out at 4.2 µM.
Regarding `O=c1cc(Nc2ccc(Br)cc2)c2ccc3ccccc3c2o1`, the EC50 in assay [1] stood at 410 nM; in assay [2], 470 nM; in assay [3] it was 720 nM; in assay [4] it was 520 nM; in assay [5], 500 nM; in assay [6], 3.1 µM. In addition, in assay [7], the EC50 came to 6.8 µM.
In the case of `Cc1ccc(Nc2cc(=O)oc3c2ccc2ccccc23)cc1`, the EC50 in assay [1] turned out to be 220 nM; in assay [2], 170 nM; in assay [3], 250 nM; in assay [4], 370 nM; in assay [5], 380 nM; in assay [6], 13 µM. In addition, in assay [7], the EC50 was 15.3 µM.
With `O=c1cc(NC2CCCCC2)c2ccc3ccccc3c2o1`, the EC50 in assay [1] turned out to be 610 nM; in assay [2] it was 430 nM; in assay [3] it was 720 nM; in assay [4], 970 nM; in assay [5], 1300 nM; in assay [6], 5.8 µM. Moreover, the EC50 in assay [7] was 4.1 µM.
As to `CCc1ccc(Nc2cc(=O)oc3c2ccc2ccccc23)cc1`, the EC50 in assay [1] is 280 nM; in assay [2] it was 180 nM; in assay [3], 200 nM; in assay [4], 300 nM; in assay [5], 300 nM; in assay [6], 0.79 µM. Moreover, the EC50 in assay [7] is 1.4 µM.
As to `CCCN(CCC)c1cc(=O)oc2c1ccc1ccccc12`, the EC50 is > 30000 nM in assay [1]; 20800 nM in assay [2]; > 30000 nM in assay [3]; > 30000 nM in assay [4]; > 30000 nM in assay [5]; > 30 µM in assay [6]. Besides, in assay [7], the EC50 worked out at 30 µM.
For the compound `O=c1cc(Nc2ccccc2)c2ccc3ccccc3c2o1`, the EC50 in assay [1] is 440 nM; in assay [2], 500 nM; in assay [3] it was 980 nM; in assay [4], 820 nM; in assay [5] it was 1600 nM; in assay [6], 0.91 µM. For the same compound, in assay [7], the EC50 worked out at 0.27 µM.
For the compound `CNc1cc(=O)oc2c1ccc1ccccc12`, the EC50 was > 30000 nM in assay [1]; > 30000 nM in assay [2]; > 30000 nM in assay [3]; > 30000 nM in assay [4]; > 30000 nM in assay [5]; > 30 µM in assay [6]. Further, the EC50 in assay [7] is > 30 µM.
Turning to `O=c1cc(Nc2ccccc2Br)c2ccc3ccccc3c2o1`, the EC50 stood at 160 nM in assay [1]; 150 nM in assay [2]; 190 nM in assay [3]; 230 nM in assay [4]; 260 nM in assay [5]; 0.38 µM in assay [6]. In assay [7], the EC50 was found to be 2.6 µM.
Turning to `O=c1cc(Nc2ccc(F)cc2)c2ccc3ccccc3c2o1`, the EC50 in assay [1] amounted to 1200 nM; in assay [2], 510 nM; in assay [3], 810 nM; in assay [4] it was 780 nM; in assay [5], 1100 nM; in assay [6], 3.2 µM. Further, the EC50 in assay [7] is > 30 µM.
For `COc1ccccc1Nc1cc(=O)oc2c1ccc1ccccc12`, the EC50 in assay [1] came out at 500 nM; in assay [2], 470 nM; in assay [3], 600 nM; in assay [4], 760 nM; in assay [5], 640 nM; in assay [6], 4.7 µM. Also, in assay [7], the EC50 was found to be 7.3 µM.
Consider `Cc1cccc(Nc2cc(=O)oc3c2ccc2ccccc23)c1`, for which the EC50 in assay [1] was found to be 140 nM; in assay [2] it was 140 nM; in assay [3] it was 150 nM; in assay [4], 140 nM; in assay [5], 150 nM; in assay [6], 0.08 µM. Besides, the EC50 in assay [7] is 0.76 µM.
As for `O=c1cc(Nc2cccc3ccccc23)c2ccc3ccccc3c2o1`, the EC50 in assay [1] was found to be 270 nM; in assay [2] it was 200 nM; in assay [3] it was 250 nM; in assay [4], 300 nM; in assay [5], 320 nM; in assay [6] it was 0.53 µM. Further, the EC50 in assay [7] came to 0.47 µM.
As to `Cc1cccc2c1ccc1c3occ(C)c3c(=O)oc21`, the EC50 in assay [1] is > 30000 nM; in assay [2], > 30000 nM; in assay [3] it was > 30000 nM; in assay [4], > 30000 nM; in assay [5], 950 nM; in assay [6], 0.95 µM. For the same compound, the EC50 in assay [7] is > 30 µM.
